Results: the OligoGym collection
Several values for one entry are separate records, joined by “and”; a condition that tells them apart may be missing. Identical values can stand only once. After the bases stand the sugars from the 5' end (letter, count) and the backbone: PS all phosphorothioate, else s phosphorothioate and o phosphodiester by linkage. Methylation of C is not given here. e = 2'-O-(2-methoxyethyl) (MOE); k = constrained ethyl (cEt); d = 2'-deoxy (DNA)

What was measured:
SOD1 = conditions: ASO
MALAT1 = conditions: ASO, A431, 0.005 µM

AGGACCTGCACTGGTAC (sugars e3 k2 d7 k2 e3, PS)
target mRNA inhibition (SOD1; HepG2, 3 µM): 4%

AGGATAACAGATGAGTT (sugars e2 k2 d9 k2 e2, PS)
target mRNA inhibition (SOD1; HepG2, 0.1875 µM): 32%
target mRNA inhibition (SOD1; HepG2, 0.75 µM): 62%
target mRNA inhibition (SOD1; HepG2, 3 µM): 89%
target mRNA inhibition (SOD1; HepG2, 4 µM): 86%
target mRNA inhibition (SOD1; HepG2, 12 µM): 98%

AGGTCATTGAAACAGAC (sugars e2 k2 d8 k2 e3, PS)
target mRNA inhibition (SOD1; HepG2, 5 µM): 40%

AGTCATCTGCTTTTTCA (sugars e3 k2 d7 k2 e3, PS)
target mRNA inhibition (SOD1; HepG2, 3 µM): 76%

AGTCTGGCAAAATACAG (sugars e3 k2 d7 k2 e3, PS)
target mRNA inhibition (SOD1; HepG2, 3 µM): 1%

AGTGTTTAATGTTTAT (sugars kekeddddddddekek, linkages s1 o3 s8 o1 s2)
target mRNA inhibition (SOD1; A431, 0.12 µM): 2%
target mRNA inhibition (SOD1; A431, 0.6 µM): 31%
target mRNA inhibition (SOD1; A431, 3 µM): 47%
target mRNA inhibition (SOD1; A431, 15 µM): 61%

AGTGTTTAATGTTTATC (sugars e2 k2 d9 k2 e2, PS)
target mRNA inhibition (SOD1; HepG2, 0.1875 µM): 35%
target mRNA inhibition (SOD1; HepG2, 0.75 µM): 66%
target mRNA inhibition (SOD1; HepG2, 3 µM): 83%
target mRNA inhibition (SOD1; HepG2, 4 µM): 75%
target mRNA inhibition (SOD1; HepG2, 5 µM): 80%
target mRNA inhibition (SOD1; HepG2, 12 µM): 84% and 87%

AGTGTTTAATGTTTATCA (sugars e5 d8 e5, linkages s1 o3 s9 o2 s2)
target mRNA inhibition (SOD1; A431, 0.12 µM): 2%
target mRNA inhibition (SOD1; A431, 0.6 µM): 35%
target mRNA inhibition (SOD1; A431, 3 µM): 52%
target mRNA inhibition (SOD1; A431, 15 µM): 67%
target mRNA inhibition (SOD1; HepG2, 0.222 µM): 33%
target mRNA inhibition (SOD1; HepG2, 0.667 µM): 58%
target mRNA inhibition (SOD1; HepG2, 2 µM): 74%
target mRNA inhibition (SOD1; HepG2, 6 µM): 86%

AGTTTAATACCCATCTG (sugars e2 k2 d8 k2 e3, PS)
target mRNA inhibition (SOD1; HepG2, 5 µM): 29%

AGTTTCTCACTACAGGT (sugars e2 k2 d9 k2 e2, PS)
target mRNA inhibition (SOD1; HepG2, 5 µM): 50%

ATAAAACTATACAAATC (sugars e3 k2 d7 k2 e3, PS)
target mRNA inhibition (SOD1; HepG2, 3 µM): 14%

ATAAGTGCCATACAGGG (sugars e2 k2 d9 k2 e2, PS)
target mRNA inhibition (SOD1; HepG2, 5 µM): 46%

ATACAAATCTTCCAAGT (sugars e3 k2 d7 k2 e3, PS)
target mRNA inhibition (SOD1; HepG2, 3 µM): 15%

ATACAGGTCATTGAAAC (sugars e3 k2 d7 k2 e3, PS)
target mRNA inhibition (SOD1; HepG2, 3 µM): 14%

ATAGAGGATTAAAGTGA (sugars e3 k2 d7 k2 e3, PS)
target mRNA inhibition (SOD1; HepG2, 3 µM): 9%

ATAGCCTCATAATAAGT (sugars e2 k2 d8 k2 e3, PS)
target mRNA inhibition (SOD1; HepG2, 5 µM): 20%

ATAGCCTCATAATAAGT (sugars e2 k2 d9 k2 e2, PS)
target mRNA inhibition (SOD1; HepG2, 5 µM): 27%

ATCAGTTTCTCACTACA (sugars e2 k2 d9 k2 e2, PS)
target mRNA inhibition (SOD1; HepG2, 5 µM): 44%

ATCCAAGGGAATGTTTA (sugars e3 k2 d7 k2 e3, PS)
target mRNA inhibition (SOD1; HepG2, 3 µM): 42%

ATCCTTTGGCCCACCGT (sugars e3 k2 d7 k2 e3, PS)
target mRNA inhibition (SOD1; HepG2, 3 µM): 51%

ATCTGTGATTTAAGTCT (sugars e2 k2 d8 k2 e3, PS)
target mRNA inhibition (SOD1; HepG2, 5 µM): 35%

TTCCTTCGGATGCTTC (sugars k3 d10 k3, PS)
target mRNA inhibition (MALAT1): 50%

TTCGATCACCTTCCGC (sugars k3 d10 k3, PS)
target mRNA inhibition (MALAT1): 12%

TTCGCTTTTATTCTGC (sugars k3 d10 k3, PS)
target mRNA inhibition (MALAT1): 69% and 88%

TTCGGTTAAAAATAGG (sugars k3 d10 k3, PS)
target mRNA inhibition (MALAT1): -7%

TTCTAGACAGACCTAA (sugars k3 d10 k3, PS)
target mRNA inhibition (MALAT1): 29%

TTCTATAGTCTGAAGA (sugars k3 d10 k3, PS)
target mRNA inhibition (MALAT1): 14%

TTCTTAACAGCTTATG (sugars k3 d10 k3, PS)
target mRNA inhibition (MALAT1): 21%

TTCTTCGGTTAAAAAT (sugars k3 d10 k3, PS)
target mRNA inhibition (MALAT1): 2%

TTGACCTTAGGATAAT (sugars k3 d10 k3, PS)
target mRNA inhibition (MALAT1): 47%

TTGCACTCGCTCCTTC (sugars k3 d10 k3, PS)
target mRNA inhibition (MALAT1): 33%

TTGCAGGGACGGTTGA (sugars k3 d10 k3, PS)
target mRNA inhibition (MALAT1): -10%

TTGCTCACATGCCAGT (sugars k3 d10 k3, PS)
target mRNA inhibition (MALAT1): 40%

TTGGCACACTGGCATG (sugars k3 d10 k3, PS)
target mRNA inhibition (MALAT1): 24%

TTTAAAGTAGACCAAC (sugars k3 d10 k3, PS)
target mRNA inhibition (MALAT1): -49%

TTTAAATGACGCAATT (sugars k3 d10 k3, PS)
target mRNA inhibition (MALAT1): 15%

TTTAACTTCCCCCAGC (sugars k3 d10 k3, PS)
target mRNA inhibition (MALAT1): -2%

TTTAAGCCTTCGGTGC (sugars k3 d10 k3, PS)
target mRNA inhibition (MALAT1): 13%

TTTAATCATACTCCAG (sugars k3 d10 k3, PS)
target mRNA inhibition (MALAT1): 24%

TTTACCAACCACTCGC (sugars k3 d10 k3, PS)
target mRNA inhibition (MALAT1): 18%

TTTATCACTCAGCTGG (sugars k3 d10 k3, PS)
target mRNA inhibition (MALAT1): 53%

TTTCATCCTACCACTC (sugars k3 d10 k3, PS)
target mRNA inhibition (MALAT1): 27%

TTTGAAGCATACCTTA (sugars k3 d10 k3, PS)
target mRNA inhibition (MALAT1): -1%

TTTTAAAAAGGCTCGA (sugars k3 d10 k3, PS)
target mRNA inhibition (MALAT1): 12%

TTTTAAACGGGTCATC (sugars k3 d10 k3, PS)
target mRNA inhibition (MALAT1): 17%

TTTTAATCACCTTCGG (sugars k3 d10 k3, PS)
target mRNA inhibition (MALAT1): 44%

TTTTAGCAGTAACATC (sugars k3 d10 k3, PS)
target mRNA inhibition (MALAT1): 34%
